# “And” between values parts separate entries of the source, which are not always exact repeats. Equal entries are not always repeated.
# Tests used:
# [1] = system: patients with previously untreated AML; experiment: Phase 1b/2 study (NCT02343939): response (complete remission) to entospletinib monotherapy lead-in followed by daunorubicin/cytarabine induction; type: in vivo, human
# Excerpt: (§1) Patients with residual disease two weeks after chemotherapy received a second induction cycle identical to the first.
# [2] = system: patients with previously untreated AML; experiment: Phase 1b/2 study (NCT02343939): tolerability, dose limiting toxicity and adverse events
# Excerpt: as §1
# [3] = system: patients with previously untreated AML; experiment: Phase 1b/2 study (NCT02343939): platelet counts and platelet transfusions (FIG. 2, FIG. 3); type: in vivo, human; details: for mean number of platelet transfusions required per subject: across monotherapy lead-in and induction cycles; for mean number of transfusions required per subject: induction treatment
# Excerpt: as §1
# [4] = system: patients with previously untreated AML; experiment: Phase 1b/2 study (NCT02343939): absolute neutrophil counts / neutrophil recovery (FIG. 1)
# Excerpt: as §1
# [5] = clinical; Nijjar J. S., et al., Rheumatology 2013; cited from earlier work
structure (smiles),measurement,setting,value
c1cn2cc(-c3ccc4cn[nH]c4c3)nc(Nc3ccc(N4CCOCC4)cc3)c2n1 [entospletinib],patients requiring a second induction,"[1]; 200 mg BID, 3 patients",two required a second induction
same,patients requiring a second induction,"[1]; 400 mg BID, 6 patients",none required a second induction
same,response after the 14 day entospletinib monotherapy window,"[1]; person with 11q23-rearranged AML, prior to chemotherapy",morphologic and cytogenetic CR
same,dose limiting toxicity (DLT),"[2]; 200 mg BID po, three patients",no DLT was observed
same,dose limiting toxicity (DLT),"[2]; 400 mg BID po, 3 additional patients (DL 1 expansion)",none of whom experienced DLT
same,adverse event possibly related to entospletinib,"[2]; 400 mg BID po, one of three patients (documented fungal pneumonia), did not meet DLT criteria",grade 3 pneumonitis
same,tolerability of single-agent entospletinib,"[2]; monotherapy window period (up to 14 days), before chemotherapy",well tolerated
same,most common non hematologic adverse events,"[2]; overall, inclusive of intensive chemotherapy periods (daunorubicin + cytarabine)","febrile neutropenia, nausea, and diarrhea"
same,platelet transfusions during monotherapy window,[3]; 200 mg dose level,One subject received platelet transfusions
same,platelet transfusions during monotherapy window,[3]; 400 mg dose level,no transfusions were required
same,mean number of platelet transfusions required per subject,[3]; 200 mg dose level,8.7
same,mean number of platelet transfusions required per subject,[3]; 400 mg dose level,4.1
same,mean number of platelet transfusions required per subject,[3]; overall (both dose levels),5.5
same,platelet response during the window period,"[3]; another patient with 11q23-rearranged AML, monotherapy window",significant platelet response
same,mean number of transfusions required per subject,[3]; Cycle 1 (with daunorubicin/cytarabine),4.1
same,mean number of transfusions required per subject,[3]; Cycle 2 (with daunorubicin/cytarabine),5.5
same,platelet count,[3]; two week entospletinib monotherapy window,"remained stable, or in some cases, improved from baseline"
same,recovery time from severe neutropenia,"[4]; 200 mg dose level, only evaluable subject with severe neutropenia at baseline",66 days
same,ANC recovered to during treatment,"[4]; 400 mg dose level, all three evaluable subjects under severe neutropenia cutoff of 200/μL ANC at baseline",above 200 /μL
same,individual time to recovery from severe neutropenia,"[4]; 400 mg dose level, individual subjects with severe neutropenia at baseline",8 days (2×) and 14 days
same,subjects experiencing severe neutropenia during monotherapy lead-in,"[4]; 400 mg dose level, subjects without severe neutropenia at baseline, recovered to above 200/μL by end of first induction cycle",two of the five subjects
same,"median (Q1, Q3) time to recovery from severe neutropenia","[4]; 400 mg dose level, three subjects with severe neutropenia at baseline","8 (8, 14) days"
same,absolute neutrophil counts (ANC),[4]; entospletinib monotherapy lead-in period,remained largely stable
same,severe neutropenia during induction treatment,[4]; five subjects (both dose levels) without severe neutropenia at baseline,none experienced severe neutropenia
COc1cc(Nc2ncc(F)c(Nc3ccc4c(n3)N(COP(=O)(O)O)C(=O)C(C)(C)O4)n2)cc(OC)c1OC [Fostamatinib],adverse side effects,[5],"hypertension, neutropenia and transaminitis"
